We go through 30 molecules from patent US20110294842A9, “SPIRO (FURO [3, 2-C] PYRIDINE-3-3' -INDOL) -2' (1'H)-ONE DERIVATIVES AND RELATED COMPOUNDS FOR THE TREATMENT OF SODIUM-CHANNEL MEDIATED DISEASES, SUCH AS PAIN” (Xenon Pharmaceuticals Inc., priority 2006, published 2011).

Series [1] deals with sodium channel. The experiment in a line: Guanidine influx assay (in vitro). Conditions: known cell line that expresses a sodium channel; read-out: IC50 Activity Level. It is filed as cell-based, human or rat. From the text: This example describes an in vitro assay for testing and profiling test agents against human or rat sodium channels stably expressed in cells of either an endogenous or recombinant origin. The assay is also useful for determining the IC-50 of a sodium channel blocking compound. The assay is based on the guanidine flux assay described by Reddy, N. L., et al., J Med Chem (1998), 41(17):3298-302.
The guanidine influx assay is a radiotracer flux assay used to determine ion flux activity of sodium channels in a high-throughput microplate-based format. The assay uses ^14C-guanidine hydrochloride in combination with various known sodium channel modulators, to assay the potency of test agents. Potency is determined by an IC-50 calculation. Selectivity is determined by comparing potency of the compound for the channel of interest to its potency against other sodium channels (also called ‘selectivity profiling’).
Each of the test agents is assayed against cells that express the channels of interest. Voltage gated sodium channels are either TTX sensitive or insensitive. This property is useful when evaluating the activities of a channel of interest when it resides in a mixed population with other sodium channels. The following Table 1 summarizes cell lines useful in screening for a certain channel activity in the presence or absence of TTX.
Cells expressing the channel of interest are grown according to the supplier or in the case of a recombinant cell in the presence of selective growth media such as G418 (Gibco/Invitrogen). The cells are disassociated from the culture dishes with an enzymatic solution (1×) Trypsin/EDTA (Gibco/Invitrogen) and analyzed for density and viability using haemocytometer (Neubauer). Disassociated cells are washed and resuspended in their culture media then plated into Scintiplates (Beckman Coulter Inc.) (approximately 100,000 cells/well) and incubated at 37° C./5% CO2 for 20-24 hours. After an extensive wash with Low sodium HEPES-buffered saline solution (LNHBSS) (150 mM Choline Chloride, […] (Sigma), 1 mM Calcium Chloride, 5 mM Potassium Chloride, 1 mM Magnesium Chloride, 10 mM Glucose) agents diluted with LNHBSS are added to each well. (Varying concentrations of test agent may be used). The activation/radiolabel mixture contains aconitine (Sigma), and ^14C-guanidine hydrochloride (ARC).
After loading the cells with test agent and activation/radiolabel mixture, the Scintiplates are incubated at ambient temperature. Following the incubation, the Scintplates are extensively washed with LNHBSS supplemented with guanidine (Sigma). The Scintiplates are dried and then counted using a Wallac MicroBeta TriLux (Perkin-Elmer Life Sciences). The ability of the test agent to block sodium channel activity is determined by comparing the amount of ^14C-guanidine present inside the cells expressing the different sodium channels.
IC-50 value of a test agent for a specific sodium channel may be determined using the above general method. IC-50 may be determined using a 3, 8, 10, 12 or 16 point curve in duplicate or triplicate with a starting concentration of 1, 5 or 10 μM diluted serially with a final concentration reaching the sub-nanomolar, nanomolar and low micromolar ranges. Typically the mid-point concentration of test agent is set at 1 μM, and sequential concentrations of half dilutions greater or smaller are applied (e.g. 0.5 μM; 5 μM and 0.25 μM; 10 μM and 0.125 μM; 20 μM etc.). The IC-50 curve is calculated using the 4 Parameter Logistic Model or Sigmoidal Dose-Response Model formula (fit=(A+((B−A)/(1+((C/×)̂ D)))).
The Synthetic Example numbers provided in Table 2 correspond to the Synthetic Examples herein: […]

Series [2] has as its target PC12 (Nav1.2) (Rattus norvegicus, UniProt P04775).
For series [3], the system named is CHO-K1 (Nav1.4). It is filed as cell-based, Chinese Hamster.
The target of series [4] is SK-N-BE2C (NaV1.8) (Homo sapiens, UniProt Q9Y5Y9). It is filed as cell-based.
SK-N-BE2C (NaV1.8), sequence (Q9Y5Y9 whole entry, looked up): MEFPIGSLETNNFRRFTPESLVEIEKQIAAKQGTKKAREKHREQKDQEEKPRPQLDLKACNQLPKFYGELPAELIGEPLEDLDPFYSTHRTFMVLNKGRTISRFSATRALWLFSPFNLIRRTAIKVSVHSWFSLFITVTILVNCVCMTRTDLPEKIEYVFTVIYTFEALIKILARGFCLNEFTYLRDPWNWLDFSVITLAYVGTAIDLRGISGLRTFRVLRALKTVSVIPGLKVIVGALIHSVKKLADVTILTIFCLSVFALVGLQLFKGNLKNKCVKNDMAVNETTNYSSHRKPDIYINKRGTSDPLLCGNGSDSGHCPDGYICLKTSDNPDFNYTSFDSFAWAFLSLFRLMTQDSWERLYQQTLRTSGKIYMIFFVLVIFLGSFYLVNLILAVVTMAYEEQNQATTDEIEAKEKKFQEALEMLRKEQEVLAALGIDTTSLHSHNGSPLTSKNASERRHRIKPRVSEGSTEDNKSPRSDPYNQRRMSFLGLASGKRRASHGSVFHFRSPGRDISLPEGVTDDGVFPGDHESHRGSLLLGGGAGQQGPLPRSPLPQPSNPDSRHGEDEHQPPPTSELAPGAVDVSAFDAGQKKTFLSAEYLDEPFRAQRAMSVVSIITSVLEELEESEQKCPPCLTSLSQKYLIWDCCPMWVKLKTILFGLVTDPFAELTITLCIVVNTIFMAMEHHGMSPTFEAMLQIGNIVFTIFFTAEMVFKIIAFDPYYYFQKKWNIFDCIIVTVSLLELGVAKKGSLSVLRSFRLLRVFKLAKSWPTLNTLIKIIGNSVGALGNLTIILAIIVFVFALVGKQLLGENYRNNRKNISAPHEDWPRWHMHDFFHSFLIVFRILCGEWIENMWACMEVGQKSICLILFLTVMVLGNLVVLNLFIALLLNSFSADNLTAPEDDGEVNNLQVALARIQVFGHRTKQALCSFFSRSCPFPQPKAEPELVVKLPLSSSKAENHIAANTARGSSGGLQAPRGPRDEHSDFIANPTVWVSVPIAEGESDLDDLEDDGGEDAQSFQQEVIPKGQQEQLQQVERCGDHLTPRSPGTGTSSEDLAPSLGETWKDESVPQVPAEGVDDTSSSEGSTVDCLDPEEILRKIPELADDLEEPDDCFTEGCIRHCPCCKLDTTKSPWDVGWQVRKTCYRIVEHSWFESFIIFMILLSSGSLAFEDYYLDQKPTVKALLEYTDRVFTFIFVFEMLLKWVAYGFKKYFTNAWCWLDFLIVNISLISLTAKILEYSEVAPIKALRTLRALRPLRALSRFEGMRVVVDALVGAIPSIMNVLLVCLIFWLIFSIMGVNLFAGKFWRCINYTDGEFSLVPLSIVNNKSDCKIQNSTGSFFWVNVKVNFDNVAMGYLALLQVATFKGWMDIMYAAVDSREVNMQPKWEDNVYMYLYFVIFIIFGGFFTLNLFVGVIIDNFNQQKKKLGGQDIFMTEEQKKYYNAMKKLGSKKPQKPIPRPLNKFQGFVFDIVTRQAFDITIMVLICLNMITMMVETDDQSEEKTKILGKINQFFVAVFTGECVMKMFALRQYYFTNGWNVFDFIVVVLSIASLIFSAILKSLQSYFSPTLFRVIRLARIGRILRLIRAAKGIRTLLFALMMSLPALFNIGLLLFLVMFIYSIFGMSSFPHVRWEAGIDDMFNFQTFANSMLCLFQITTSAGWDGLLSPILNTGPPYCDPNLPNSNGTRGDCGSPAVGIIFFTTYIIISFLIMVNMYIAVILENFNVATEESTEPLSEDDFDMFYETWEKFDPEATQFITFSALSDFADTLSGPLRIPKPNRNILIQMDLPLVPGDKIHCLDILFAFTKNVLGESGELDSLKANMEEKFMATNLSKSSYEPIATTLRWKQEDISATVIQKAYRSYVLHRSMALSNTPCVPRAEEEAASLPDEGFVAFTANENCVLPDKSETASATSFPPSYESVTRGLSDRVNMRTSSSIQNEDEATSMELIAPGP
The test system of series [5] is L6 (Nav1.4 and 1.5). It is filed as cell-based, rat.

PC12 (Nav1.2), sequence (P04775 whole entry, looked up): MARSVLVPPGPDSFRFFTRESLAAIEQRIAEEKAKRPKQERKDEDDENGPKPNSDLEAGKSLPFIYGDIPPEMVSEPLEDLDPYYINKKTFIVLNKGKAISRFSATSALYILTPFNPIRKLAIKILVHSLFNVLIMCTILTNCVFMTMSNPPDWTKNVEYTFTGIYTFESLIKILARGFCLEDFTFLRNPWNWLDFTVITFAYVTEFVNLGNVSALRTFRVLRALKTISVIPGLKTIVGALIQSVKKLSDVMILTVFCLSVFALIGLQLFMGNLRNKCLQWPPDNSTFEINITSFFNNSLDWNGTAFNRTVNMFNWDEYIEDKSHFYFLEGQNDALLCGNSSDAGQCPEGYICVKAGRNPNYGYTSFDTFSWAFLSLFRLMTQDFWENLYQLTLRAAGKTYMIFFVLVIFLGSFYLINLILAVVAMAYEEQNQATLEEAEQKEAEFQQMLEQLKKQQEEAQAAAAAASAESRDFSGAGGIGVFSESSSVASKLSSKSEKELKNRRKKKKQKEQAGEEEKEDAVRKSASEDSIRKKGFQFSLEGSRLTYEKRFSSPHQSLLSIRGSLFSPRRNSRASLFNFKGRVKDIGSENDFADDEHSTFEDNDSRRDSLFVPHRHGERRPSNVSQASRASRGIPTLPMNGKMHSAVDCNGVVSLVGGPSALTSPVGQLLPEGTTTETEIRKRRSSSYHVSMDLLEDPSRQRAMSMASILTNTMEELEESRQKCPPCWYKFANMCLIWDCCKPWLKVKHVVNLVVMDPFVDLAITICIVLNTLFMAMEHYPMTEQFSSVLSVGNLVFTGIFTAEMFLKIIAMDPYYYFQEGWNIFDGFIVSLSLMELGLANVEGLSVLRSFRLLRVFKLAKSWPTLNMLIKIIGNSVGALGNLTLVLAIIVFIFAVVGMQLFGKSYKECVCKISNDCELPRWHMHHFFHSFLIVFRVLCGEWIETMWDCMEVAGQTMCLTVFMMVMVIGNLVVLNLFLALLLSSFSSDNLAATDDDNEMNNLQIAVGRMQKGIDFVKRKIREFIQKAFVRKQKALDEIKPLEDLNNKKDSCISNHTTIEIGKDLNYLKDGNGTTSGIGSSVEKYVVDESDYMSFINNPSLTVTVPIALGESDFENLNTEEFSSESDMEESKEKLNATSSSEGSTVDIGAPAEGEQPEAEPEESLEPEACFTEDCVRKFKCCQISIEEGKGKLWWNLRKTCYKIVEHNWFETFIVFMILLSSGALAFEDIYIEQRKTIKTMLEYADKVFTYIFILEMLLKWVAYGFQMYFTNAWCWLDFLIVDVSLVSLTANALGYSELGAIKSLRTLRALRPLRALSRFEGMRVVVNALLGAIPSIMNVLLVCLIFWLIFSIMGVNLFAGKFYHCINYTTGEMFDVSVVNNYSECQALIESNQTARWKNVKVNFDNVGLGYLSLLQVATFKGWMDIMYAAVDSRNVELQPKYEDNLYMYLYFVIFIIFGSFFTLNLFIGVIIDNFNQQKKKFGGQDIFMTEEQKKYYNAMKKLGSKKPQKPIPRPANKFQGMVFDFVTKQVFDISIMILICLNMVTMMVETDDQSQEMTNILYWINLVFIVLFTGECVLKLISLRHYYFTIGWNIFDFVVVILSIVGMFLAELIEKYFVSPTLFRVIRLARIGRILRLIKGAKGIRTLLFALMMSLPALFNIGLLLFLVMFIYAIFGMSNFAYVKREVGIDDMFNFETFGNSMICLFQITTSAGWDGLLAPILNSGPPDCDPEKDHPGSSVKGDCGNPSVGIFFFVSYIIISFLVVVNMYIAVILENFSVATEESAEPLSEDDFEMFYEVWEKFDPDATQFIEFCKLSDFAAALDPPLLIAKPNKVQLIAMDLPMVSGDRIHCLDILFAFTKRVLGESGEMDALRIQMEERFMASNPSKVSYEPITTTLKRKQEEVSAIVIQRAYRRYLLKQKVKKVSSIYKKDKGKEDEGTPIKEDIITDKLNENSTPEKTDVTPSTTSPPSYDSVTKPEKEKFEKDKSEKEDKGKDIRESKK

With `CCCCCN1C(=O)C2(COc3ccncc32)c2ccccc21` (stereo not shown) [Example 1], the IC50 in series [1] lay in the range of 100 to 1000 nM.

In the case of `CCCCCN1C(=O)C2(COc3ccncc32)c2ccccc21` (stereo not shown) [Example 2], in series [1], the half-inhibitory concentration (IC50) was not below 1000 nM.

`CCCCCN1C(=O)C2(COc3cc[nH]c(=O)c32)c2ccccc21` (stereo not shown) [Example 3]: the IC50 in series [1] is not below 1000 nM.

For the molecule `COc1ccc2c(n1)C1(CO2)C(=O)N(Cc2ccc(C(F)(F)F)o2)c2cccc(Br)c21` (stereo not shown) [Example 4], the half-maximal inhibitory concentration (IC50) in series [1] fell in the range of 10 to 100 nM.

For the molecule `COc1ccc2c(n1)C1(CO2)C(=O)N(Cc2ccc(C(F)(F)F)o2)c2ccccc21` (stereo not shown) [Example 5], the half-inhibitory concentration (IC50) in series [1] was 100 to 1000 nM.

For `O=C1N(Cc2ccc(C(F)(F)F)o2)c2ccccc2C12COc1cc3c(nc12)OCO3` (stereo not shown) [Example 8], the IC50 in series [1] lay in the range of 1 to 10 nM.

With `COc1ccc2c(n1)C1(CO2)C(=O)N(Cc2ccc(C(F)(F)F)o2)c2ccc(F)cc21` (stereo not shown) [Example 10], in series [1], the IC50 is not below 1000 nM.

For `COc1ccc2c(n1)C1(CO2)C(=O)N(Cc2ccc(C(F)(F)F)o2)c2cccc(Cl)c21` (stereo not shown) [Example 11], in series [1], the IC50 fell in the range of 100 to 1000 nM.

In the case of `COc1ccc2c(n1)C1(CO2)C(=O)Nc2cccc(Br)c21` (stereo not shown) [Example 12], the IC50 in series [1] is 100 to 1000 nM.

Turning to `COc1ccc2c(n1)C1(CO2)C(=O)Nc2ccccc21` (stereo not shown) [Example 13], the melting point lay within 199 to 200 °C. Moreover, the 50% inhibitory concentration (IC50) in series [1] is not below 1000 nM.

Consider `COc1ccc2c(n1)C1(CO2)C(=O)N(Cc2ccc(Cl)s2)c2ccccc21` (stereo not shown) [Example 15], for which the IC50 in series [1] was 10 to 100 nM.

Consider `COc1ccc2c(n1)C1(CO2)C(=O)N(Cc2csc(C(C)C)n2)c2ccccc21` (stereo not shown) [Example 16], for which the melting point lay in the range of 136 to 138 °C. For the same molecule, the IC50 in series [1] was in the range of 10 to 100 nM.

Consider `COc1ccc2c(n1)C1(CO2)C(=O)N(Cc2ccccn2)c2ccccc21` (stereo not shown) [Example 17], for which the IC50 in series [1] was 100 to 1000 nM.

Turning to `COc1ccc2c(n1)C1(CO2)C(=O)N(CC(=O)Nc2ccccc2F)c2ccccc21` (stereo not shown) [Example 18], the IC50 in series [1] lay in the range of 100 to 1000 nM.

As for `COc1ccc2c(n1)C1(CO2)C(=O)N(Cc2ncc(Cl)n2C)c2ccccc21` (stereo not shown) [Example 19], the melting point was in the range of 169 to 171 °C. Also, in series [1], the IC50 was in the range of 100 to 1000 nM.

Molecule `COc1ccc2c(n1)C1(CO2)C(=O)N(CC2CCN(C)CC2)c2ccccc21` (stereo not shown) [Example 22] registered a melting point of 58 to 62 °C. In addition, the IC50 in series [1] is not below 1000 nM.

Consider `COc1cc2c(cn1)OCC21C(=O)N(Cc2ccc(C(F)(F)F)o2)c2ccccc21` (stereo not shown) [Example 23], for which the half-inhibitory concentration (IC50) in series [1] is 1 to 10 nM.

On to `COc1cc2c(cn1)OCC21C(=O)N(C(c2ccccc2)c2ccccc2)c2ccccc21` (stereo not shown) [Example 24], for which the IC50 in series [1] was not below 1000 nM.

Consider `COc1cc2c(cn1)OCC21C(=O)Nc2ccccc21` (stereo not shown) [Example 25], for which the IC50 in series [1] lay in the range of 100 to 1000 nM.

As to `COc1cc2c(cn1)OCC21C(=O)N(CC2CCOCC2)c2ccccc21` (stereo not shown) [Example 26], the IC50 in series [1] was 100 to 1000 nM.

As to `COc1cc2c(cn1)OCC21C(=O)N(C[C@@H]2CCCO2)c2ccccc21` (stereo partly shown) [Example 27], the IC50 in series [1] lay within 10 to 100 nM.

As for `COc1cc2c(cn1)OCC21C(=O)N(C[C@H]2CCCO2)c2ccccc21` (stereo partly shown) [Example 28], the IC50 in series [1] is 10 to 100 nM.

As to `COc1ccc2c(n1)C1(CO2)C(=O)N(Cc2ccc(C(F)(F)F)o2)c2ccccc21` (stereo not shown) [Synthetic Example 5, 5-methoxy-1′-{[5-(trifluoromethyl)-2-furyl]methyl}spiro[furo[3,2-b]pyridine-3,3′-indol]-2′(1′H)-one], the melting point was 145 to 147 °C.

Molecule `O=C1N(Cc2ccc(C(F)(F)F)o2)c2ccccc2C12COc1ccc(=O)[nH]c12` (stereo not shown) [Synthetic Example 7, 1′-{[5-(trifluoromethyl)-2-furyl]methyl}spiro[furo[3,2-b]pyridine-3,3′-indole]-2′,5(1′H,4H)-dione] had a melting point of 175 to 177 °C.

Take `O=C1N(Cc2ccc(C(F)(F)F)o2)c2ccccc2C12COc1cc3c(nc12)OCO3` (stereo not shown) [Synthetic Example 8, 1′-{[5-(trifluoromethyl)-2-furyl]methyl}spiro[1,3-dioxolo[4,5-b]furo[2,3-e]pyridine-5,3′-indol]-2′(1′H)-one]: the melting point lay within 175 to 177 °C.

Turning to `COc1ccc2c(n1)C1(CO2)C(=O)N(Cc2ccc(C(F)(F)F)o2)c2ccc(F)cc21` (stereo not shown) [Synthetic Example 10, 5′-fluoro-5-methoxy-1′-{[5-(trifluoromethyl)-2-furyl]methyl}spiro[furo[3,2-b]pyridine-3,3′-indol]-2′(1′H)-one], the melting point lay within 158 to 160 °C.

On to `COc1ccc2c(n1)C1(CO2)C(=O)Nc2cccc(Br)c21` (stereo not shown) [Synthetic Example 12, 4′-bromo-5-methoxyspiro[furo[3,2-b]pyridine-3,3′-indol]-2′(1′H)-one], for which the melting point fell in the range of 265 to 268 °C.

The molecule `COc1cc2c(cn1)OCC21C(=O)Nc2ccccc21` (stereo not shown) [Synthetic Example 25, 5-methoxyspiro[furo[2,3-c]pyridine-3,3′-indol]-2′(1′H)-one] showed a melting point of 231 to 232 °C.

Consider `COc1cc2c(cn1)OCC21C(=O)N(CC2CCOCC2)c2ccccc21` (stereo not shown) [Synthetic Example 26, 5-methoxy-1′-(tetrahydro-2H-pyran-4-ylmethyl)spiro[furo[2,3-c]pyridine-3,3′-indol]-2′(1′H)-one], for which the melting point lay within 84 to 85 °C.

As to `NC1=N[C@H](O)[C@H]2[C@H]3O[C@]4(O)O[C@@H]([C@@H](O)[C@@]2(N1)[C@@H]4O)[C@]3(O)CO` [TTX, tetrodotoxin], the “block of [14C] guanidine influx” value in series [2] is on record as “Guanidine influx was completely”; in series [3] it was “Guanidine influx was completely”; in series [4], “TTX partially blocked influx”; in series [5], “partially blocked by TTX (Nav1.5”.

Broadly, the IC50 is the concentration at which inhibition is half-maximal. What is called melting point is the temperature, or range, at which the solid turns liquid.
